The numbers were not newly measured in patent US8986714B2, “Formulations, methods and procedures for reducing or preventing the development, or the risk of development, of neuropathology as a result of trauma” (Sapna Life Sciences Corporation, priority 2013, dated 2015), which cites them from elsewhere.

For one series, the system named is spinal cord compression. Particulars: in vivo.
For series [1], the system named is chronic post-surgical pain. Particulars: perioperative administration; at two months or more after various types of surgery.
The test system of a further series is postherpetic neuralgia. The note with it: combined with valacyclovir; six months later.
For another series, the system named is spinal cord ischemia. Particulars: rabbits.
For series [2], the system named is immature mouse brain ischemia. Particulars: treatment of acute seizures; measured four weeks later.
Another series has as its system migraine attacks. Particulars: human, in vivo.
The test system of a further series is traumatic brain injury. Particulars: approximately 80 patients treated within eight hours after traumatic brain injury.
Series [3] deals with rat model of neuropathic pain.
In series [4] the test system is cat spinal dorsal horn neurons. Particulars: noxious cutaneous stimulation and substance P.
Series [5] has as its system partial sciatic nerve ligation. The note with it: compared to controls.
Series [6] relates to peripheral nerve crush injury. Particulars: facial nerve and sciatic nerve injury models.
The test system of series [7] is chemotherapy-induced nausea and vomiting. Particulars: in conjunction with another antiemetic drug.
For series [8], the system named is amyotrophic lateral sclerosis.
In series [9] the test system is chronic spinal cord injury. The note with it: chronic spinal cord injury patients, first two weeks.
For series [10], the system named is chronic spinal cord injury. Particulars: stable chronic spinal cord injury patients.

Turning to `NCC1(CC(=O)O)CCCCC1` [gabapentin], the “outcomes of neuropathology, spinal cord compression” value in the series on spinal cord compression is “preventive effects”. In series [1], the “incidence of chronic post-surgical pain” value was “reducing the incidence of chronic post-surgical pain”. Moreover, the “rate of postherpetic neuralgia” value in the series with postherpetic neuralgia is recorded as “reduced”. The “outcomes of neuropathology, spinal cord ischemia” value in the series with spinal cord ischemia was “preventive effects”. Further, the brain atrophy entry in series [2] was “beneficial effects on brain atrophy”.
For `COc1ccccc1[C@H](C)C(=O)N1C[C@@H]2[C@H](C1)C(c1ccccc1)(c1ccccc1)CC[C@@]2(O)c1ccccc1OC` [RPR100893], in the series on migraine attacks, the “treatment of migraine attacks” value is recorded as “not effective”.
For the compound `CC(=O)[C@H]1CC[C@H]2[C@@H]3CCC4=CC(=O)CC[C@]4(C)[C@H]3CC[C@]12C` [progesterone], in the series on traumatic brain injury, the neurological outcomes is reported as “improved neurological outcomes”. Also, the “development of symptoms of peripheral nerve injury” value in series [3] (early administration, intraperitoneally) is reported as “prevents the development of symptoms of peripheral nerve injury”. Further, in series [3] (given for 11 days, starting on day 20, versus control group), the “tactile hypersensitivity, late treatment” value was “no difference between this experimental group and the control group”. The “tactile hypersensitivity by 30 days” value in series [3] (started one hour after model induction, daily for the subsequent 10 days) is “no tactile hypersensitivity”. Besides, in series [3] (study period ended at day 85), the “persistence of effect after treatment ended on day 10” value is given as “persisted to the end of the study period”.
`COc1ccccc1CN[C@H]1C2CCN(CC2)[C@H]1C(c1ccccc1)c1ccccc1` [CP-96,345]: in [4], the “responses of spinal dorsal horn neurons” value was “blocks responses of cat spinal dorsal horn neurons to noxious cutaneous stimulation and to substance P”. Also, in [3] (animal model), the “recovery from peripheral nerve injury” value is “promotes the recovery from peripheral nerve injury”.
Take `[Cl-].[Li+]` [lithium chloride]: the “nociceptive scores in response to tactile and thermal stimuli” value in [5] is “reduced the nociceptive scores”. Besides, in series [6], the “expression of myelin genes” value was “stimulate the expression of myelin genes”, the functional recovery result is “accelerate functional recovery” and the myelin structure result is “restore myelin structure”.
With `C[C@@H](O[C@H]1OCCN(Cc2n[nH]c(=O)[nH]2)[C@H]1c1ccc(F)cc1)c1cc(C(F)(F)F)cc(C(F)(F)F)c1` [aprepitant], in series [7], the “acute effects on chemotherapy-induced nausea and vomiting” value is on record as “proved to be effective when administered in conjunction with another antiemetic drug”.
Consider `O=C([O-])[O-].[Li+].[Li+]` [lithium carbonate], for which, in [8] (22 patients, over 15 months), the mortality result was “prevented death of 22 patients” and the motor deterioration entry is given as “only minimal motor deterioration”. In addition, in series [8] (daily oral doses), the plasma levels was 400 to 800 µM. Further, the tolerability entry in series [9] is reported as “well tolerated over the first two weeks”. The “effect on neurological symptoms” value in [10] is given as “without effect on neurological symptoms”.
